# Where two headings read alike, the source gives them in different places.
# Assays:
# Type in all cases: cell-based
# [1] = test system: rat lymph node metastasis cells, monolayers; assay: Drug effect in monolayers of rat lymph node metastasis cells (inhibition of bromodeoxyuridine incorporation); conditions: 96 h, read-out: Concentration producing 50% inhibition
# [2] = test system: rat primary tumors, histocultures; assay: Drug effect in histocultures of rat primary tumors (inhibition of 3H-thymidine incorporation); conditions: Histocultures, Primary, 96 hours, read-out: Concentration producing 50% inhibition
# [3] = test system: Human prostate PC3 tumor cells; assay: Drug treatment and extracellular bFGF (ELISA), LDH release, cell number; conditions: for Extracellular LDH, % of control / Extracellular bFGF, % of control / Extracellular concentration bFGF / bFGF:LDH ratio: 72 hours
# Protocol: The experimental conditions are described briefly below. […] The remaining cell number at the end of treatment was counted using a Coulter counter. The extracellular bFGF concentration was measured using ELISA. The release of lactate dehydrogenase (LDH) into the extracellular culture medium is indicative of cell death and gives a measure of the release of cellular content into the culture medium. If the increase in extracellular bFGF level is due to the release of bFGF upon cell death and lysis, the increase in bFGF will be accompanied by an increase in LDH in the same extent. This would result in an higher bFGF level and a constant bFGF-to-LDH ratio. On the other hand, an increase in extracellular bFGF due to an increase in bFGF production and release of bFGF from cells by processes other than cell lysis will result in an higher bFGF level and an higher bFGF-to-LDH ratio.
# Human pharynx FaDu = assay: FGF-induced resistance, inhibition of BrdU incorporation; conditions: read-out: Drug concentration needed to produce 50% inhibition
# Protocol: (§1) Prior to drug treatment, cells were incubated for 4 days with tumor CM or with r-aFGF ad/or r-bFGF-containing medium, supplemented with 1% FBS (final protein concentration adjusted to 2 mg/ml). The medium was renewed every other day.
# (§2) The antiproliferative drug effect in histocultures was measured as inhibition of ^3H-thymidine incorporation quantified by autoradiography (Yen, W. C. et al. (1996) Pharm. Res. 13:1305-1312) and, for monolayers, as inhibition of BrdU incorporation or as reduction of total proteins by the sulforhodamine B assay (Au, J. L.-S. et al. (1998) Cancer Res. 58:2141-2148). For the latter, the two assays yielded qualitatively similar results. Cell kill induced by 96-hour drug treatment was monitored by the release of LDH into the culture medium. LDH activity was monitored by the conversion of tetrazolium to formazan (detected at 490 nm).
# (§3) The experimental conditions are described briefly below. Cells were pretreated with human recombinant r-aFGF and/or r-bFGF for 96 hours and then with drugs for 96 hours. For the studies on cells derived from the human prostate, lung, pharynx, colon and breast cancer cells, the drug effect was determined by the inhibition of BrdU incorporation. For the study on the human leukemic cells, the drug effect was measured by the MTT assay, which measures the number of metabolically active cells (Alley, M. C. et al (1988) Cancer Res 48:589-601).
# Human colon HT-29 = assay: as above; conditions: HT-29, 96 h, read-out: Drug concentration needed to produce 50% inhibition
# Protocol: as §1, §2, §3
smiles,measurement,setting,value
O=c1[nH]cc(F)c(=O)[nH]1 [5-Fluorouracil],IC50,[1]; Monolayers (passage 0),1.9 ± 0.06 µM
same,IC50,[1]; Monolayers (passage 1),1.29 ± 0.06 µM
same,IC50,[1]; Monolayers (passage 2),1.09 ± 0.04 µM
same,IC50,[1]; Monolayers (passage 3),0.83 ± 0.1 µM
same,IC50,[2],33 ± 12 µM
same,Remaining cell number at 72 hours (% of control),[3]; drug concentration 2000 NM,88%
same,Remaining cell number at 72 hours × 10^6,[3]; drug concentration 2000 NM,2.2 × 10^6
same,"Extracellular LDH, % of control",[3]; drug concentration 2000 NM,121 % of control
same,"Extracellular bFGF, % of control",[3]; drug concentration 2000 NM,139 % of control
same,Extracellular concentration bFGF,[3]; drug concentration 2000 NM,8.37 pg/mL
same,bFGF:LDH ratio,[3]; drug concentration 2000 NM,1.15
same,Remaining cell number at 72 hours (% of control),[3]; drug concentration 6000 NM,56%
same,Remaining cell number at 72 hours × 10^6,[3]; drug concentration 6000 NM,1.4 × 10^6
same,"Extracellular LDH, % of control",[3]; drug concentration 6000 NM,158 % of control
same,"Extracellular bFGF, % of control",[3]; drug concentration 6000 NM,189 % of control
same,Extracellular concentration bFGF,[3]; drug concentration 6000 NM,11.35 pg/mL
same,bFGF:LDH ratio,[3]; drug concentration 6000 NM,1.20
same,Remaining cell number at 72 hours (% of control),[3]; drug concentration 20000 NM,24%
same,Remaining cell number at 72 hours × 10^6,[3]; drug concentration 20000 NM,0.6 × 10^6
same,"Extracellular LDH, % of control",[3]; drug concentration 20000 NM,202 % of control
same,"Extracellular bFGF, % of control",[3]; drug concentration 20000 NM,296 % of control
same,Extracellular concentration bFGF,[3]; drug concentration 20000 NM,17.8 pg/mL
same,bFGF:LDH ratio,[3]; drug concentration 20000 NM,1.46
same,IC50,"Human pharynx FaDu; 96 h, r-aFGF + r-bFGF 0 ng/ml",5.76 µM
same,IC50,"Human pharynx FaDu; 96 h, r-aFGF + r-bFGF 0.04 ± 1 ng/ml",5.44 µM
same,IC50,"Human pharynx FaDu; 96 h, r-aFGF + r-bFGF 0.08 ± 1 ng/ml",5.44 µM
same,IC50,"Human pharynx FaDu; 96 h, r-aFGF + r-bFGF 0.16 ± 1 ng/ml",5.47 µM
same,IC50,"Human pharynx FaDu; 96 h, r-aFGF + r-bFGF 0.32 ± 1 ng/ml",5.56 µM
same,IC50,"Human pharynx FaDu; 96 h, r-aFGF + r-bFGF 0.64 ± 1 ng/ml",9.69 µM
same,IC50,"Human pharynx FaDu; 96 h, r-aFGF + r-bFGF 1 ± 1 ng/ml",15.2 µM
same,IC50,Human pharynx FaDu; r-aFGF 0 ng/ml,5.75 µM
same,IC50,Human pharynx FaDu; r-aFGF 1 ng/ml,5.5 µM
same,IC50,Human pharynx FaDu; r-aFGF 10 ng/ml,5.45 µM
same,IC50,Human pharynx FaDu; r-aFGF 50 ng/ml,5.25 µM
same,IC50,Human pharynx FaDu; r-bFGF 0 ng/ml,4.34 µM
same,IC50,Human pharynx FaDu; r-bFGF 1 ng/ml,4.56 µM
same,IC50,Human pharynx FaDu; r-bFGF 10 ng/ml,4.79 µM
same,IC50,Human pharynx FaDu; r-bFGF 50 ng/ml,4.25 µM
same,IC50,Human colon HT-29; r-aFGF + r-bFGF 0 ng/ml,1.64 µM
same,IC50,Human colon HT-29; r-aFGF + r-bFGF 0.04 ± 1 ng/ml,1.76 µM
same,IC50,Human colon HT-29; r-aFGF + r-bFGF 0.08 ± 1 ng/ml,1.55 µM
same,IC50,Human colon HT-29; r-aFGF + r-bFGF 0.16 ± 1 ng/ml,1.61 µM
same,IC50,Human colon HT-29; r-aFGF + r-bFGF 0.32 ± 1 ng/ml,2.77 µM
same,IC50,Human colon HT-29; r-aFGF + r-bFGF 0.64 ± 1 ng/ml,5.21 µM
same,IC50,Human colon HT-29; r-aFGF + r-bFGF 1 ± 1 ng/ml,7.07 µM
